What was measured:
rSmGST [1] = biological target: T1, rSmGST (Spirometra mansoni, UniProt I1SZ68); test: biochemical; assay type: biochemical; details: for Ki / IC50: 4 mM GSH; for Ki: CDNB varied 0.20 to 2.0 mM, secondary plot of 1/v intercept vs inhibitor concentration; for inhibition pattern: CDNB as the variable substrate, double-reciprocal plots; for maximal slope at IC50 of fractional velocity vs log inhibitor concentration: Supplementary Figure S4; for IC50: concentration giving 50% inhibition, percent residual activity vs log inhibitor concentration, 1 mM CDNB, pH 6.5
Experimental: (§1) The effect of temperature on rSmGST was carried out by keeping the enzyme at different temperatures (15, 20, 25, 30, 35, 40, 45, 50, and 55°C) for 10 min, and then enzyme activity was assayed immediately. The effect of pH on rSmGST was carried out using the phosphate buffer having different pH from 5.5 to 10. Activity of enzyme was determined in 100 mM potassium phosphate buffer (pH 6.5) with 1 mM l-chloro-2,4-dinitrobenzene (CDNB) and 4 mM GSH as substrates by following the change in absorbance at 340 nm (ε 1/4 9.6 mM^−1. cm^−1) for 1 min at 30°C as previously described ([28]). In the kinetic mechanism analysis of rSmGST, double reciprocal Lineweaver-Burk plot was used to graphically determine the apparent Km and Vmax values. Inhibition studies were performed according to the procedure of Tahir et al. ([29]). Different range of concentrations of Rose Bengal (RB, 0.1–1000 μM), Cibacron Blue (CB, 0.1–1000 μM), Bromosulfophtalein (BSP, 0.1–500 μM), and Tripheniltin chloride (TPT, 0.1–100 μM) were used as inhibitors respectively. The concentration of inhibitor giving 50% inhibition (IC50) was obtained by plotting the percent of residual activity vs the log of inhibitor concentration. The Ki values for each rSmGST inhibitor were determined according to methods described in Nava et al. ([30]). To ascertain which type of reversible enzyme inhibition occurs, initial-velocity enzyme reactions in the presence of the inhibitors were performed. The rSmGST was preincubated for a few seconds in the assay buffer with 4 mM GSH and inhibitor at the corresponding concentration (CB, 10, 30 μM; TPT, 4, 8 μM; BSP, 20, 60 μM and RB, 20, 60 μM). The reaction was initiated by addition of one of a range of 0.20 to 2.0 mM of different concentrations of CDNB. A set of reactions under identical conditions was performed for each inhibitor concentration and for the non-inhibitor control.

rSmGST [2] = biological target: T1, rSmGST; test: Enzyme kinetics of rSmGST with the substrates GSH and CDNB (Lineweaver-Burk plot); assay type: biochemical; details: for saturation point (substrate concentration): no further increase in enzyme activity above this concentration
Experimental: as §1

[3] = substrate: N[C@@H](CCC(=O)N[C@@H](CS)C(=O)NCC(=O)O)C(=O)O; test: as above; assay type: biochemical, Spirometra mansoni; details: other: Lineweaver-Burk plot; GSH 0.5–5.0 mM or CDNB 0.2–2.0 mM as varied substrate; pH 6.5
Experimental: as §1, with “To ascertain which type of reversible enzyme inhibition occurs, initial-velocity enzyme reactions in the presence of the inhibitors were performed. The rSmGST was preincubated for a few seconds in the assay buffer with 4 mM GSH and inhibitor at the corresponding concentration (CB, 10, 30 μM; TPT, 4, 8 μM; BSP, 20, 60 μM and RB, 20, 60 μM). The reaction was initiated by addition of one of a range of 0.20 to 2.0 mM of different concentrations of CDNB. A set of reactions under identical conditions was performed for each inhibitor concentration and for the non-inhibitor control.” left out

[4] = Lineweaver-Burk plot, GSH 0.5–5.0 mM or CDNB 0.2–2.0 mM as varied substrate

O=C1OC(c2ccc(O)c(S(=O)(=O)O)c2)(c2ccc(O)c(S(=O)(=O)O)c2)c2c(Br)c(Br)c(Br)c(Br)c21 [Bromosulfophtalein]
Ki (rSmGST [1]): 122 µM
inhibition pattern (rSmGST [1]): non-competitive
maximal slope at IC50 of fractional velocity vs log inhibitor concentration (rSmGST [1]): −0.27
IC50 (rSmGST [1]): 290 µM

O=[N+]([O-])c1ccc(Cl)c([N+](=O)[O-])c1 [CDNB, 1-chloro-2,4-dinitrobenzene]
specific activity of rSmGST toward substrate (rSmGST [2]): 3.12 µmol/min/mg
Km (rSmGST [2]; [4]): 6.29 mM
Vmax (rSmGST [2]; [4]): 10.120 µmol/min/mL
saturation point (substrate concentration) (rSmGST [2]): 1.6 mM

Nc1c(S(=O)(=O)O)cc(Nc2ccc(Nc3nc(Cl)nc(Nc4ccccc4S(=O)(=O)O)n3)c(S(=O)(=O)O)c2)c2c1C(=O)c1ccccc1C2=O [Cibacron Blue]
Ki (rSmGST [1]): 20.1 µM
inhibition pattern (rSmGST [1]): uncompetitive
maximal slope at IC50 of fractional velocity vs log inhibitor concentration (rSmGST [1]): −0.51
IC50 (rSmGST [1]): 11.7 µM

N[C@@H](CCC(=O)N[C@@H](CS)C(=O)NCC(=O)O)C(=O)O [GSH, glutathione]
saturation point (substrate concentration) (rSmGST [2]): 4.0 mM

O=C([O-])c1c(Cl)c(Cl)c(Cl)c(Cl)c1-c1c2cc(I)c(=O)c(I)c-2oc2c(I)c([O-])c(I)cc12.[Na+].[Na+] [Rose Bengal]
Ki (rSmGST [1]): 57.6 µM
inhibition pattern (rSmGST [1]): uncompetitive
maximal slope at IC50 of fractional velocity vs log inhibitor concentration (rSmGST [1]): −0.63
IC50 (rSmGST [1]): 34 µM

[Cl][Sn]([c]1ccccc1)([c]1ccccc1)[c]1ccccc1 [Tripheniltin chloride]
Ki (rSmGST [1]): 11.7 µM
inhibition pattern (rSmGST [1]): non-competitive
maximal slope at IC50 of fractional velocity vs log inhibitor concentration (rSmGST [1]): −0.59
IC50 (rSmGST [1]): 12.1 µM

B1: rSmGST (Spirometra erinaceieuropaei) (protein)
chain: MGSLPVLEYWKIRGLAQAIRLLFHYLGQEYVEELYEAGGPPDFSREPWLKHKFNKGLDFPNLPYLIDDGFKITQSGAILEYVADKHGMLPTSAKERAVLHMLQNELSGFRASYGRLVYNPDFSKLKQGFLDELPQKLRLWSNYLGDKQWLTGDKIQYPDFNLYDFLDALQNLEPSCLKDFPNLQRYMKRFEDLDKIKEFQKSDAYIAHPFNNTVAAWRGDA
Km [3]: 0.78 mM
Vmax [3]: 1.146 µmol/min/mL
